Reference: patent US8129533B2, “Method for production of quinolone-containing lyophilized preparation” (Dalichi Sankyo Company, Limited, priority 2005, dated 2012)

Tests used:
[1] = system: drug-resistant Gram-positive bacteria such as methicillin-resistant staphylococci, penicillin-resistant pneumococci, and vancomycin-resistant enterococci; settings: cited from earlier work
[2] = Reconstitution time of lyophilized preparation (with vs without annealing step); assay type: physicochemical; settings: for reconstitution time of lyophilized preparation: lyophilized preparation (20 mg/mL, pH-adjusting agent only) prepared with an annealing step vs without, water for injection 10 mL, moderate shaking, FIG. 8
From the text: After a drug solution had been prepared in a manner similar to that described above, the solution was charged into a container and frozen under the conditions shown in Table 2, and then was lyophilized in a manner similar to that described above, followed by measurement of the time required for reconstitution (hereinafter the time may be referred to as a “reconstitution time”). The state observed about 30 seconds after injection of a liquid for reconstitution is shown in FIG. 2 (method without annealing step) or FIG. 3 (method with an annealing step).
Lyophilization was performed under varied annealing conditions (e.g., temperature and maintenance time for an annealing step) as shown in Table 3. […] Reconstitution time was measured through the following procedure: after completion of lyophilization, water for injection was added to a vial in an amount equal to that of the liquid charged into the vial, followed by moderate shaking, and the time required for complete dissolution of the content of the vial was measured.
Water for injection (10 mL) was added to a vial, followed by moderate shaking, and the time required for complete dissolution of the content of the vial was measured.

[3] = DSC of frozen product of compound-containing aqueous solution (glass transition temperature); assay type: physicochemical; settings: frozen product of Table 1 formulation
From the text: The temperature of the annealing step may be determined on the basis of the glass transition temperature of the frozen product of the compound (1)-containing aqueous solution obtained through the freezing step. Specifically, the temperature of the frozen product is elevated to a level equal to or higher than the glass transition temperature thereof, and then maintained for a predetermined period of time. The glass transition temperature of the frozen product may be determined through, for example, DSC of the frozen product, and this DSC may be performed according to a generally employed method. The glass transition temperature of frozen products is varied in accordance with, for example, the compositional proportions of ingredients of starting solutions for the products. Therefore, different frozen products are subjected to DSC for determination of the glass transition temperature thereof.
For example, in the DSC chart of the frozen product containing compound (I) and pH-adjusting agents having a formulation shown in Table 1, the peak corresponding to the glass transition temperature of the frozen product rises at about −14.0° C. (FIG. 5). […] Therefore, when the annealing step is performed at a temperature equal to or higher than this temperature, the annealing effect is expected to be attained.

[4] = system: drug-resistant bacteria; settings: cited from earlier work

COc1c(N2CC[C@@H](C3(N)CC3)C2)ccc2c(=O)c(C(=O)O)cn([C@@H]3C[C@@H]3F)c12 [compound (I), 7-[3-(R)-(1-aminocyclopropyl)pyrrolidin-1-yl]-1-[2-(S)-fluoro-1-(R)-cyclopropyl]-1,4-dihydro-8-methoxy-4-oxoquinoline-3-carboxylic acid]
antibacterial activity [1]: high antibacterial activity
reconstituting property of lyophilized cake ([2]; Table 1 formulation, frozen product maintained between glass transition temperature and a temperature at which it does not thaw): improved reconstituting property
temperature at which the glass transition peak starts (DSC) [3]: about −17 °C

CC1COc2c(N3CCN(C)CC3)c(F)cc3c(=O)c(C(=O)O)cn1c23 (racemic) [ofloxacin, (±)-9-fluoro-2,3-dihydro-3-methyl-10-(4-methyl-1-piperazinyl)-7-oxo-7H-pyrido[1,2,3-de][1,4]benzoxazine-6-carboxylic acid]
reconstitution time of lyophilized preparation [2]: reduced reconstitution time

C[C@H]1COc2c(N3CCN(C)CC3)c(F)cc3c(=O)c(C(=O)O)cn1c23 [levofloxacin, (−)-(S)-9-fluoro-2,3-dihydro-3-methyl-10-(4-methyl-1-piperazinyl)-7-oxo-7H-pyrido[1,2,3-de][1,4]benzoxazine-6-carboxylic acid hemihydrate]
reconstitution time of lyophilized preparation [2]: reduced reconstitution time

COc1c(N2CC3(CC3)[C@](C)(N)C2)c(F)cc2c(=O)c(C(=O)O)cn([C@@H]3C[C@@H]3F)c12 [compound (II), (+)-7-[(7S)-7-amino-7-methyl-5-azaspiro[2.4]heptan-5-yl]-6-fluoro-1-[(1R,2S)-2-fluoro-1-cyclopropyl]-1,4-dihydro-8-methoxy-4-oxo-3-quinolinecarboxylic acid hemihydrate]
antibacterial activity [4]: excellent antibacterial activity
reconstitution time of lyophilized preparation [2]: reduced reconstitution time

N[C@@H]1CN(c2c(F)cc3c(=O)c(C(=O)O)cn([C@@H]4C[C@@H]4F)c3c2Cl)CC12CC2 [sitafloxacin, (−)-7-[(7S)-7-amino-5-azaspiro[2.4]heptan-5-yl]-8-chloro-6-fluoro-1-[(1R,2S)-2-fluoro-1-cyclopropyl]-1,4-dihydro-4-oxo-3-quinolinecarboxylic acid sesquihydrate]
reconstitution time of lyophilized preparation [2]: reduced reconstitution time
